Reference: patent US6399614B1, “1-(N-phenylaminoalkyl)piperazine derivatives substituted at position 2 of the phenyl ring” (Recordati S.A. Chemical and Pharmaceutical Company, priority 1997, dated 2002)

Biological target: T1, human 5-HT1A serotonergic receptor (Homo sapiens, UniProt P08908)
T1 construct: expressed in transfected cells; host or cells: HeLa
T1 sequence (P08908 1-422): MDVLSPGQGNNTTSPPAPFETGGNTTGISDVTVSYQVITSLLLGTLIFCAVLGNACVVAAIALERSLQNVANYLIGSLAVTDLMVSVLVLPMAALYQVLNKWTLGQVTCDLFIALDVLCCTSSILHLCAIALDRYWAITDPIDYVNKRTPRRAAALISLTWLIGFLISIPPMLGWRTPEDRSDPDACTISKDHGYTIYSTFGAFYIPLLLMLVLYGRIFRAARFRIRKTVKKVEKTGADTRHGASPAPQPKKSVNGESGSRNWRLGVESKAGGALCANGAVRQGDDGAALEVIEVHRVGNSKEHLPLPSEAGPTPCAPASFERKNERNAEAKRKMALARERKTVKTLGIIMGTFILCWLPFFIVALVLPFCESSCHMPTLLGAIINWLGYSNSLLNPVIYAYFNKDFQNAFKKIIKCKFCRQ
Assay: Radioreceptor binding, recombinant human 5-HT1A receptors ([3H]8-OH-DPAT, HeLa membranes)
Conditions: recombinant human receptor, [3H]8-OH-DPAT; Ki from IC50 by Cheng & Prusoff; read-out: Binding affinity for the 5-HT1A receptor, Ki
Protocol: Genomic clone G-21 coding for the human 5-HT1A serotonergic receptor is stably transfected in a human cell line (HeLa). HeLa cells were grown as monolayers in Dulbecco's modified Eagle's medium (DMEM), supplemented with 10% fetal calf serum and gentamicin ([…]), 5% CO2 at 37° C. Cells were detached from the growth flask at 95% confluence by a cell scraper and were lysed in ice-cold 5 mM Tris and 5 mM EDTA buffer (pH 7.4). Homogenates were centrifuged at 40000×g×20 min and pellets were resuspended in a small volume of ice-cold 5 mM Tris and 5 mM EDTA buffer (pH 7.4) and immediately frozen and stored at −70° C. until use. On the day of experiment, cell membranes were resuspended in binding buffer: 50 mM Tris HCl (pH 7.4), 2.5 mM MgCl2, 10 μM pargiline (Fargin et al., Nature 335, 358-360, 1988). Membranes were incubated in a final volume of 1 ml for 30 min at 30° C. with 0.2-1 nM [3H]8-OH-DPAT, in absence or presence of competing drugs; non-specific binding was determined in the presence of 10 μM 5-HT. The incubation was stopped by addition of ice-cold Tris-HCl buffer and rapid filtration through 0.2% polyethyleneimine pretreated Whatman GF/B or Schleicher & Schuell GF52 filters.
The inhibition of specific binding of the radioligands by the tested drugs was analyzed to estimate the IC50 value by using the non-linear curve-fitting program Allfit (De Lean et al., Am. J. Physiol. 235, E97-E102, 1978). The IC50 value was converted to an affinity constant (Ki) by the equation of Cheng & Prusoff (Cheng, Y. C.; Prusoff, W. H. Biochem. Pharmacol. 22, 3099-3108, 1973).

Ki | SMILES
10.3 nM | COc1ccccc1N1CCN(CCNc2ccccc2OC(F)(F)F)CC1 [Example 3, 1-[N-(2-trifluoromethoxyphenyl)-2-aminoethyl]-4-(2-methoxyphenyl)piperazine]
0.64 nM | COc1ccccc1N1CCN(CCN(C(=O)C2CCCCC2)c2ccccc2OC(F)(F)F)CC1 [Example 4, 1-[N-(2-trifluoromethoxyphenyl)-N-cyclohexylcarbonyl-2-aminoethyl]-4-(2-methoxyphenyl)piperazine]
14.8 nM | COc1ccccc1N1CCN(CCNc2ccccc2Oc2ccccc2)CC1 [Example 5, 1-[N-(2-phenoxyphenyl)-2-aminoethyl]-4-(2-methoxyphenyl)piperazine.3HCl]
0.45 nM | COc1ccccc1N1CCN(CCN(C(=O)C2CCCCC2)c2ccccc2Oc2ccccc2)CC1 [Example 6, 1-[N-(2-phenoxyphenyl)-N-cyclohexylcarbonyl-2-aminoethyl]-4-(2-methoxyphenyl)piperazine]
3.82 nM | COc1ccccc1N1CCN(CCNc2ccccc2I)CC1 [Example 7, 1-[N-(2-iodophenyl)-2-aminoethyl]-4-(2-methoxyphenyl)piperazine]
4.77 nM | O=[N+]([O-])c1ccccc1NCCN1CCN(c2cccc3[nH]ccc23)CC1 [Example 12, 1-[N-(2-nitrophenyl)-2-aminoethyl]-4-(4-indolyl)piperazine]
10.3 nM | O=[N+]([O-])c1ccccc1NCCN1CCN(Cc2cc(Cl)ccc2Cl)CC1 [Example 14, 1-[N-(2-nitrophenyl)-2-aminoethyl)-4-(2,5-dichlorobenzyl)piperazine]
6.2 nM | O=C(C1CCCCC1)N(CCN1CCN(Cc2cc(Cl)ccc2Cl)CC1)c1ccccc1[N+](=O)[O-] [Example 15, 1-[N-(2-nitrophenyl)-N-cyclohexylcarbonyl-2-aminoethyl]-4-(2,5-dichlorobenzyl)piperazine]
2.9 nM | COc1ccccc1N1CCN(CCN(C(=O)C2CCCCC2)c2ccccc2C(=O)NC(=O)C2CCCCC2)CC1 [Example 16, 1-[N-(2-cyclohexylcarbonylaminocarbonylphenyl)-N-cyclohexylcarbonyl-2-aminoethyl]-4-(2-methoxyphenyl)piperazine]
20.2 nM | COC(=O)c1ccccc1NCCN1CCN(c2ccccc2OC)CC1 [Example 17, 1-[N-(2-methoxycarbonylphenyl)-2-aminoethyl]-4-(2-methoxyphenyl)piperazine]
2.72 nM | COc1ccccc1N1CCN(CCN(C(=O)C2CCCCC2)c2ccccc2C(=O)N(C)C)CC1 [Example 21, 1-[N-(2-dimethylaminocarbonylphenyl)-N-cyclohexylcarbonyl-2-aminoethyl]-4-(2-methoxyphenyl)piperazine.]
8.91 nM | CCNC(=O)c1ccccc1N(CCN1CCN(c2ccccc2OC)CC1)C(=O)C1CCCCC1 [Example 25, 1-[N-(2-ethylaminocarbonylphenyl)-N-cyclohexylcarbonyl-2-aminoethyl]-4-(2-methoxyphenyl)piperazine]
2.69 nM | COc1ccccc1N1CCN(CCN(C(=O)C2CCCCC2)c2ccccc2C(F)(F)F)CC1 [Example 26, 1-[N-(2-trifluoromethylphenyl)-N-cyclohexylcarbonyl-2-aminoethyl]-4-(2-methoxyphenyl)piperazine.]
18.8 nM | COc1ccccc1N1CCN(CCN(C(=O)C2CCCCC2)c2ccccc2NC(C)=O)CC1 [Example 28, 1-[N-(2-acetylaminophenyl)-N-cyclohexylcarbonyl-2-aminoethyl]-4-(2-methoxyphenyl)piperazine]
7.96 nM | COc1ccccc1[N+]1([O-])CCN(CCN(C(=O)C2CCCCC2)c2ccccc2[N+](=O)[O-])CC1 [Example 30, 1-[N-(2-nitrophenyl)-N-cyclohexylcarbonyl-2-aminoethyl]-4-(2-methoxyphenyl)piperazine N^4-oxide]
19.4 nM | COc1ccccc1N1CCN(CCN(C(=O)c2ccoc2)c2ccccc2[N+](=O)[O-])CC1 [Example 32, 1-[N-(2-nitrophenyl)-N-(3-furylcarbonyl)-2-aminoethyl]-4-(2-methoxyphenyl)piperazine]
16.3 nM | COc1ccccc1N1CCN(CCN(C(=O)c2cccs2)c2ccccc2[N+](=O)[O-])CC1 [Example 34, 1-[N-(2-nitrophenyl)-N-(2-thiophenecarbonyl)-2-aminoethyl]-4-(2-methoxyphenyl)piperazine]

Ki | SMILES
8 nM | COc1ccccc1N1CCN(CCN(C(=O)c2ccsc2)c2ccccc2[N+](=O)[O-])CC1 [Example 35, 1-[N-(2-nitrophenyl)-N-(3-thiophenecarbonyl)-2-aminoethyl]-4-(2-methoxyphenyl)piperazine]
1.02 nM | COc1ccccc1N1CCN(CCN(C(=O)c2cnccn2)c2ccccc2[N+](=O)[O-])CC1 [Example 38, 1-[N-(2-nitrophenyl)-N-(2-pyrazinylcarbonyl)-2-aminoethyl]-4-(2-methoxyphenyl)piperazine]
2.65 nM | COc1ccccc1N1CCN(CCN(C(=O)C2(C)CCCCC2)c2ccccc2[N+](=O)[O-])CC1 [Example 39, 1-[N-(2-nitrophenyl)-N-(1-methylcyclohexylcarbonyl)-2-aminoethyl]-4-(2-methoxyphenyl)piperazine]
2.21 nM | COc1ccccc1N1CCN(C(C)CN(C(=O)C2CCCCC2)c2ccccc2[N+](=O)[O-])CC1 (stereo not shown) [Example 45, 1-[N-(2-nitrophenyl)-N-cyclohexylcarbonyl-1-amino-2-propyl]-4-(2methoxyphenyl)piperazine]
6.05 nM | COc1ccccc1N1CCN(CCN(C(=O)C2CCCCC2)c2ccccc2NS(C)(=O)=O)CC1 [Example 46, 1-[N-cyclohexylcarbonyl-N-(2-methanesulphonylaminophenyl)-2-aminoethyl]-4-(2-methoxyphenyl)piperazine]
0.17 nM | COc1ccccc1N1CCN(CCN(C(=O)C2CCCCC2)c2ccccc2C(=O)OCc2ccccc2)CC1 [Example 49, 1-[N-cyclohexylcarbonyl-N-(2-benzyloxycarbonylphenyl)-2-aminoethyl]-4-(2-methoxyphenyl)piperazine]
1.16 nM | FC(F)(F)Oc1ccccc1NCCN1CCN(c2cccc3[nH]ccc23)CC1 [Example 50, 1-[N-(2-trifluoromethoxyphenyl)-2-aminoethyl]-4-(4-indolyl)piperazine]
34 nM | COc1ccccc1N1CCN(CC(C)Nc2ccccc2[N+](=O)[O-])CC1 (stereo not shown) [Example 52, 1-[N-(2-nitrophenyl)-2-aminopropyl]-4-(2-methoxyphenyl)piperazine]
11.7 nM | O=C(c1cnccn1)N(CCN1CCN(c2cccc3[nH]ccc23)CC1)c1ccccc1[N+](=O)[O-] [Example 53]
10.8 nM | COc1cc([N+](=O)[O-])ccc1N1CCN(CCN(C(=O)C2CCCCC2)c2ccccc2OC(F)(F)F)CC1 [Example 55, 1-[N-cyclohexylcarbonyl-N-(2-trifluoromethoxyphenyl)-2-aminoethyl]-^4-(2-methoxy-4-nitrophenyl)piperazine]
2.44 nM | COc1cc(NC(=O)C(F)(F)F)ccc1N1CCN(CCN(C(=O)C2CCCCC2)c2ccccc2OC(F)(F)F)CC1 [Example 58, 1-[N-cyclohexylcarbonyl-N-(2-trifluoromethoxyphenyl)-2-aminoethyl]-4-(4-trifluoroacetylamino-2-methoxyphenyl)piperazine]
18.6 nM | COc1cc([N+](=O)[O-])ccc1N1CCN(CCN(C(=O)C2CCCCC2)c2ccccc2OCC(F)(F)F)CC1 [Example 65]
4.76 nM | COc1cc(NC(C)=O)ccc1N1CCN(CCN(C(=O)C2CCCCC2)c2ccccc2OCC(F)(F)F)CC1 [Example 67]
9.32 nM | FC(F)(F)COc1ccccc1NCCN1CCN(c2cccc3[nH]ccc23)CC1 [Example 68]
28.1 nM | COc1cc(NC(C)=O)ccc1N1CCN(CCN(C(=O)C2CCCCC2)c2ccccc2[N+](=O)[O-])CC1 [Example 70]
15.5 nM | FC(F)(F)Oc1ccccc1NCCN1CCN(c2ccccc2OC(F)(F)F)CC1 [Example 71, 1-[N-(2-trifluoromethoxyphenyl)-2-aminoethyl]-4-(2-trifluoromethoxyphenyl)piperazine]

SMILES | Ki
COc1ccccc1N1CCN(CCNc2ccccc2C(F)(F)F)CC1 [Example 22, 1-[N-(2-trifluoromethylphenyl)-2-aminoethyl]-4-(2-methoxyphenyl)piperazine] | 18.2 nM
